In article PMC4844702, “Selective inhibition of the kinase DYRK1A by targeting its folding process” (Nature Communications, 2016):

What was measured:
Assay in all cases: Kinase panel (Carna)
Type in all cases: biochemical
DDR2 = biological target: T1, DDR2 (Homo sapiens, UniProt Q16832)
T1 construct: purchased Carna Biosciences

EGFR = biological target: T2, EGFR (Homo sapiens, UniProt P00533)
T2 construct: purchased Carna Biosciences

EPHA8 = biological target: T3, EPHA8 (Homo sapiens, UniProt P29322)
T3 construct: purchased Carna Biosciences
From the text: (§1) Detailed information on the assay conditions is available on the website of Carna Biosciences (http://www.carnabio.com).

EPHB3 = biological target: T4, EPHB3 (Homo sapiens, UniProt P54753)
T4 construct: purchased Carna Biosciences
From the text: as §1

FGFR2 = biological target: T5, FGFR2 (Homo sapiens, UniProt P21802)
T5 construct: purchased Carna Biosciences

FMS = biological target: T6, FMS (Homo sapiens, UniProt P07333)
T6 construct: purchased Carna Biosciences
From the text: as §1

FRK = biological target: T7, FRK (Homo sapiens, UniProt P42685)
T7 construct: purchased Carna Biosciences
From the text: as §1

FYN = biological target: T8, FYN (Homo sapiens, UniProt P06241)
T8 construct: purchased Carna Biosciences
From the text: as §1

HER2 = biological target: T9, HER2 (Homo sapiens, UniProt P04626)
T9 construct: purchased Carna Biosciences
From the text: as §1

IRR = biological target: T10, IRR (Homo sapiens, UniProt P14616)
T10 construct: purchased Carna Biosciences
From the text: as §1

BRSK2 = biological target: T11, BRSK2 (Homo sapiens, UniProt Q8IWQ3)
T11 construct: purchased Carna Biosciences
From the text: as §1

PYK2 = biological target: T12, PYK2 (Homo sapiens, UniProt Q14289)
T12 construct: purchased Carna Biosciences
From the text: as §1

SRC = biological target: T13, SRC (Homo sapiens, UniProt P12931)
T13 construct: purchased Carna Biosciences
From the text: as §1

TYRO3 = biological target: T14, TYRO3 (Homo sapiens, UniProt Q06418)
T14 construct: purchased Carna Biosciences
From the text: as §1

AKT3 = biological target: T15, AKT3 (Homo sapiens, UniProt Q9Y243)
T15 construct: purchased Carna Biosciences
From the text: as §1

DLK_Cascade = biological target: T16, DLK_Cascade (Homo sapiens, UniProt Q12852)
T16 construct: purchased Carna Biosciences
From the text: as §1

CDK2/CycA2 = biological target: T17, CDK2/CycA2 (Homo sapiens, UniProt P24941)
T17 construct: purchased Carna Biosciences
From the text: as §1

CK1α = biological target: T18, CK1α (Homo sapiens, UniProt P48729)
T18 construct: purchased Carna Biosciences
T18 sequence (P48729 whole entry): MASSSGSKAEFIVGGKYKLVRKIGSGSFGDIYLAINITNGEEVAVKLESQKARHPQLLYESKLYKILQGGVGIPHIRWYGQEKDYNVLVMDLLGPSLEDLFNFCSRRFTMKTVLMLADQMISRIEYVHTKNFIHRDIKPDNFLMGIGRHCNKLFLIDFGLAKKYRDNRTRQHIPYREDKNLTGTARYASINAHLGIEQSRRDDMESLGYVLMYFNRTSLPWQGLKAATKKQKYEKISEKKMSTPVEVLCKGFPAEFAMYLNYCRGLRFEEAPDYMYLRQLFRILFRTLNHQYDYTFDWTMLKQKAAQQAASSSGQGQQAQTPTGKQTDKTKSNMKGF

Erk1 = biological target: T19, Erk1 (Homo sapiens, UniProt P27361)
T19 construct: purchased Carna Biosciences
From the text: as §1

HIPK2 = biological target: T20, HIPK2 (Homo sapiens, UniProt Q9H2X6)
T20 construct: purchased Carna Biosciences
T20 sequence (Q9H2X6 whole entry): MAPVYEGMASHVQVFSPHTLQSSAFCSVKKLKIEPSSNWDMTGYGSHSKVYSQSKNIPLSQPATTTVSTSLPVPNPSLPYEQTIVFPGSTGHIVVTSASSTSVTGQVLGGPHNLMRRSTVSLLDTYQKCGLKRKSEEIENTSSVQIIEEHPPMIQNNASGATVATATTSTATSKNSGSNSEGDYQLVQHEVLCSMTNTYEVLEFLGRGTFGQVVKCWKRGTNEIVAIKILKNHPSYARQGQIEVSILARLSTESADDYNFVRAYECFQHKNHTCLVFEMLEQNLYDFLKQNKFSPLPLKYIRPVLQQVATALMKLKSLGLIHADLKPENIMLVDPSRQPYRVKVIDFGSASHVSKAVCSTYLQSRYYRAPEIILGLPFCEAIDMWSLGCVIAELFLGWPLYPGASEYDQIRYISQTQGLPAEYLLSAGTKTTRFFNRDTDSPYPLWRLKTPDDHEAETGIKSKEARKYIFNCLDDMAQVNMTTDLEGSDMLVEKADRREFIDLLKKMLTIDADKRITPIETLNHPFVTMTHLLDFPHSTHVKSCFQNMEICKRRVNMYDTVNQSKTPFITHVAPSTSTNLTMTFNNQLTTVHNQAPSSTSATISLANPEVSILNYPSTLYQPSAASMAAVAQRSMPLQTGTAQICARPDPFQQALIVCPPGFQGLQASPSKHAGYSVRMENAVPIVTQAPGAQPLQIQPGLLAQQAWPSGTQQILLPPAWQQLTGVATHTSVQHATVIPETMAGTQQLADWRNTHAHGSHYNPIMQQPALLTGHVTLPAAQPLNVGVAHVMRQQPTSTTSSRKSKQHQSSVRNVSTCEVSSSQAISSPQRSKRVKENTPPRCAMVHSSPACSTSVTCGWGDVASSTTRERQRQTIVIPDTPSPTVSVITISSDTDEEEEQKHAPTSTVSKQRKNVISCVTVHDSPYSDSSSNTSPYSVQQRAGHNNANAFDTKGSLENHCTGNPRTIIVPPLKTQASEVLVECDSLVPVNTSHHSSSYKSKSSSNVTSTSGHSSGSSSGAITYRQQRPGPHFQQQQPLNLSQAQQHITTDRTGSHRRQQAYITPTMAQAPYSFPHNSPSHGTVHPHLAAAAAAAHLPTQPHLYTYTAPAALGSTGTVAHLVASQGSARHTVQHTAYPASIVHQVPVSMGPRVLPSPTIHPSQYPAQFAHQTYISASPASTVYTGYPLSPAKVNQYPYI
From the text: as §1

JNK2 = biological target: T21, JNK2 (Homo sapiens, UniProt P45984)
T21 construct: purchased Carna Biosciences
T21 sequence (P45984 whole entry): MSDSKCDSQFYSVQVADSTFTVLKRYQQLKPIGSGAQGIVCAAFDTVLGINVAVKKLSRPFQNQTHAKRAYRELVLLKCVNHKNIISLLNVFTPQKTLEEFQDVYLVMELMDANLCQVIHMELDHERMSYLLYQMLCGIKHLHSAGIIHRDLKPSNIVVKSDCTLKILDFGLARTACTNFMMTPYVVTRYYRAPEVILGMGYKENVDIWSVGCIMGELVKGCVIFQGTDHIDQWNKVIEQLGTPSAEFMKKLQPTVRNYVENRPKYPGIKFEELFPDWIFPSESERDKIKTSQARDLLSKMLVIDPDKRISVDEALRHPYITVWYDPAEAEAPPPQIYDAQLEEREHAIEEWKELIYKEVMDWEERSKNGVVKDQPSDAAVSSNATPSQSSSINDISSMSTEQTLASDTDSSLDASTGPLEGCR

MAP2K6_Cascade = biological target: T22, MAP2K6_Cascade (Homo sapiens, UniProt P52564)
T22 construct: purchased Carna Biosciences

MAP3K3_Cascade = biological target: T23, MAP3K3_Cascade (Homo sapiens, UniProt Q99759)
T23 construct: purchased Carna Biosciences
From the text: as §1

MAP3K4_Cascade = biological target: T24, MAP3K4_Cascade (Homo sapiens, UniProt Q9Y6R4)
T24 construct: purchased Carna Biosciences
From the text: as §1

MARK3 = biological target: T25, MARK3 (Homo sapiens, UniProt P27448)
T25 construct: purchased Carna Biosciences
T25 sequence (P27448 whole entry): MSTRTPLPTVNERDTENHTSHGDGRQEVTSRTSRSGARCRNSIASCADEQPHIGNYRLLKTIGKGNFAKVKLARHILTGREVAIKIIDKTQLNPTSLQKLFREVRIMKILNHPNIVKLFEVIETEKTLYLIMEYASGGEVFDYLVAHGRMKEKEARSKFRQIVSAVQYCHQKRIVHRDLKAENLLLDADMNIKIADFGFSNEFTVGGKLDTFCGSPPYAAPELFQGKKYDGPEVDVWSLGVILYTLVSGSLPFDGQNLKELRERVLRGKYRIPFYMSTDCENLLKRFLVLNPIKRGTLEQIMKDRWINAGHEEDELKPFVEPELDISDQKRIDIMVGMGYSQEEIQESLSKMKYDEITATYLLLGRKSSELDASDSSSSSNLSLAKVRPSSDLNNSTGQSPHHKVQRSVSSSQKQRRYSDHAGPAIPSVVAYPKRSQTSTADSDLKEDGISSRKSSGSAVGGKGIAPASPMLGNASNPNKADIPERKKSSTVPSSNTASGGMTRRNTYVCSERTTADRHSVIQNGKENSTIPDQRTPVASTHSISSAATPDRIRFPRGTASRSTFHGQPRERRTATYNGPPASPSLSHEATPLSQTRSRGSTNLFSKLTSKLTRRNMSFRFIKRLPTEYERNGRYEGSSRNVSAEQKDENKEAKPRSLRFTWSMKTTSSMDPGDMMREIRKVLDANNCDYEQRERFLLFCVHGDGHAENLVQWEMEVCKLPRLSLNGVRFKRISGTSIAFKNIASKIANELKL
From the text: as §1

MELK = biological target: T26, MELK (Homo sapiens, UniProt Q14680)
T26 construct: purchased Carna Biosciences
T26 sequence (Q14680 whole entry): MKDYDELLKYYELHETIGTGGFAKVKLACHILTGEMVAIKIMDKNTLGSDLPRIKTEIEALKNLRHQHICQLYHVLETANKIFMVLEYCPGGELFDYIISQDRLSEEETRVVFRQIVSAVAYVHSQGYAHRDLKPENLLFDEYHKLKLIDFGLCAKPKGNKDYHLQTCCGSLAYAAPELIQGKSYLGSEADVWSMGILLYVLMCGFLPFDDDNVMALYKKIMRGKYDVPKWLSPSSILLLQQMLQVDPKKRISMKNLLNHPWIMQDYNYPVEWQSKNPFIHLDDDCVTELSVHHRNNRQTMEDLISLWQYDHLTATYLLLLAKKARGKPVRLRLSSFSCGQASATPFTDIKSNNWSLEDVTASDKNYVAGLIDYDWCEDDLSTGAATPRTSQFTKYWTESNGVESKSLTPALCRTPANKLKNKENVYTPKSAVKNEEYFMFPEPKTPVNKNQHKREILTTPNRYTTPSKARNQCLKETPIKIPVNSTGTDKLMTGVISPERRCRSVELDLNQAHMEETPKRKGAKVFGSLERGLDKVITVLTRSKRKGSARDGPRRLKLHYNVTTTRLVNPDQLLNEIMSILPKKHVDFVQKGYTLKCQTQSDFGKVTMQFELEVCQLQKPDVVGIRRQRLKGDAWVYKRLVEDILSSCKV
From the text: as §1

MOS_Cascade = biological target: T27, MOS_Cascade (Homo sapiens, UniProt P00540)
T27 construct: purchased Carna Biosciences
T27 sequence (P00540 whole entry): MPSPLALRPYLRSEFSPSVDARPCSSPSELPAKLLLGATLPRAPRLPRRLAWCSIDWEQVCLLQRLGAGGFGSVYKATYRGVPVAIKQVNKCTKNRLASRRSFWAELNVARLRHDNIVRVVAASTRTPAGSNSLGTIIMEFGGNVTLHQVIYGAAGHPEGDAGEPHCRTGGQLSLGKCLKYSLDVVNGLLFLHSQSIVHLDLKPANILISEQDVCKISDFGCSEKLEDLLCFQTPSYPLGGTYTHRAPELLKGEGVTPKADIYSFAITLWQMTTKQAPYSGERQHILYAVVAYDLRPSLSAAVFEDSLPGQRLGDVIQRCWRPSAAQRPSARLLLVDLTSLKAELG

MRCKβ = biological target: T28, MRCKβ (Homo sapiens, UniProt Q9Y5S2)
T28 construct: purchased Carna Biosciences

MSK2 = biological target: T29, MSK2 (Homo sapiens, UniProt O75676)
T29 construct: purchased Carna Biosciences
From the text: as §1

MST1 = biological target: T30, MST1 (Homo sapiens, UniProt Q13043)
T30 construct: purchased Carna Biosciences
From the text: as §1

MST3 = biological target: T31, MST3 (Homo sapiens, UniProt Q9Y6E0)
T31 construct: purchased Carna Biosciences
From the text: as §1

NEK9 = biological target: T32, NEK9 (Homo sapiens, UniProt Q8TD19)
T32 construct: purchased Carna Biosciences

PKCη = biological target: T33, PKCη (Homo sapiens, UniProt P24723)
T33 construct: purchased Carna Biosciences
From the text: as §1

p70S6K = biological target: T34, p70S6K (Homo sapiens, UniProt P23443)
T34 construct: purchased Carna Biosciences
T34 sequence (P23443 whole entry): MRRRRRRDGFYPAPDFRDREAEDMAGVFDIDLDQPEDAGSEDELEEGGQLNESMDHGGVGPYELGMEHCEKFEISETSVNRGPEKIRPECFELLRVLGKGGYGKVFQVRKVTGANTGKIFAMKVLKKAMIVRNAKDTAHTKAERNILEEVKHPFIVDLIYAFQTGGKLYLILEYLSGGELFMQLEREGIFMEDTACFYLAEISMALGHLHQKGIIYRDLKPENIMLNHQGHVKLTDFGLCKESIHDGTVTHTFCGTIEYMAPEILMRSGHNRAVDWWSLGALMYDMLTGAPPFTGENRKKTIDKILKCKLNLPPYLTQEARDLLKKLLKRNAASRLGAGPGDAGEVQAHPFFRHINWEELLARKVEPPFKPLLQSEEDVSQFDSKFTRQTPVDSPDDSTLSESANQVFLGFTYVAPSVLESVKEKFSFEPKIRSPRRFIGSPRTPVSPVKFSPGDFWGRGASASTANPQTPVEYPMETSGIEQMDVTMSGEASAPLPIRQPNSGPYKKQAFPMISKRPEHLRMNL
From the text: as §1

PAK6 = biological target: T35, PAK6 (Homo sapiens, UniProt Q9NQU5)
T35 construct: purchased Carna Biosciences
T35 sequence (Q9NQU5 whole entry): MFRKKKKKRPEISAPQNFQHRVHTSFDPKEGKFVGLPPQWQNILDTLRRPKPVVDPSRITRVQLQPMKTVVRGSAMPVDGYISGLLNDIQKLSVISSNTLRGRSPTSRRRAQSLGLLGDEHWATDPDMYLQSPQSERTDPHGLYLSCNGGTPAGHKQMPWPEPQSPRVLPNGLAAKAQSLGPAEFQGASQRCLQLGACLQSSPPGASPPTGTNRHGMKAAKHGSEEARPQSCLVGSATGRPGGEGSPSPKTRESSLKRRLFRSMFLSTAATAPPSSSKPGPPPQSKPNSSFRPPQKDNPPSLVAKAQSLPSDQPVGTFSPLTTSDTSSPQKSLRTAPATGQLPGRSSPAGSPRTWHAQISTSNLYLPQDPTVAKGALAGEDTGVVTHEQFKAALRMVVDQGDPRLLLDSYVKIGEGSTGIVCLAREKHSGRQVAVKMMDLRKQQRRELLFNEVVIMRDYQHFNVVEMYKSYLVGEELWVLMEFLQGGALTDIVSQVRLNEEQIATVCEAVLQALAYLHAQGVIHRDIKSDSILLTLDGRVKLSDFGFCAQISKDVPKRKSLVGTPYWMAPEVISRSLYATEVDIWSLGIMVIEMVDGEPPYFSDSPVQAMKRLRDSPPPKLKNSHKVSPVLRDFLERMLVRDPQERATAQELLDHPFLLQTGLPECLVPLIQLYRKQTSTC
From the text: as §1

PKCβ1 = biological target: T36, PKCβ1 (Homo sapiens, UniProt P05771)
T36 construct: purchased Carna Biosciences
From the text: as §1

PKCι = biological target: T37, PKCι (Homo sapiens, UniProt P41743)
T37 construct: purchased Carna Biosciences
From the text: as §1

PKD3 = biological target: T38, PKD3 (Homo sapiens, UniProt O94806)
T38 construct: purchased Carna Biosciences

PKR = biological target: T39, PKR (Homo sapiens, UniProt P19525)
T39 construct: purchased Carna Biosciences

RAF1_Cascade = biological target: T40, RAF1_Cascade (Homo sapiens, UniProt P04049)
T40 construct: purchased Carna Biosciences

SGK3 = biological target: T41, SGK3 (Homo sapiens, UniProt Q96BR1)
T41 construct: purchased Carna Biosciences

TAK1-TAB1_Cascade = biological target: T42, TAK1-TAB1_Cascade (Homo sapiens, UniProt O43318)
T42 construct: purchased Carna Biosciences
From the text: as §1

TAOK2 = biological target: T43, TAOK2 (Homo sapiens, UniProt Q9UL54)
T43 construct: purchased Carna Biosciences
From the text: as §1

TSSK2 = biological target: T44, TSSK2 (Homo sapiens, UniProt Q96PF2)
T44 construct: purchased Carna Biosciences
From the text: as §1

Compound: COc1ccc(/C=C2\SC(=S)NC2=O)cc1C#C[Si](C)(C)C [FINDY]
- inhibition at 10 µM (DDR2): 13.5%
- inhibition at 10 µM (EGFR): -5.1%
- inhibition at 10 µM (EPHA8): 48.8%
- inhibition at 10 µM (EPHB3): 22.2%
- inhibition at 10 µM (FGFR2): 19.7%
- inhibition at 10 µM (FMS): 6.8%
- inhibition at 10 µM (FRK): 8.4%
- inhibition at 10 µM (FYN): 58.4%
- inhibition at 10 µM (HER2): -0.1%
- inhibition at 10 µM (IRR): 3%
- inhibition at 10 µM (BRSK2): 5.7%
- inhibition at 10 µM (PYK2): 3.6%
- inhibition at 10 µM (SRC): 5.6%
- inhibition at 10 µM (TYRO3): 2.9%
- inhibition at 10 µM (AKT3): 18.9%
- inhibition at 10 µM (DLK_Cascade): 23.5%
- inhibition at 10 µM (CDK2/CycA2): 31.3%
- inhibition at 10 µM (CK1α): 6.1%
- inhibition at 10 µM (Erk1): 33.8%
- inhibition at 10 µM (HIPK2): 6.2%
- inhibition at 10 µM (JNK2): 0.4%
- inhibition at 10 µM (MAP2K6_Cascade): 23.5%
- inhibition at 10 µM (MAP3K3_Cascade): 3.3%
- inhibition at 10 µM (MAP3K4_Cascade): 39.8%
- inhibition at 10 µM (MARK3): 50.6%
- inhibition at 10 µM (MELK): 20.6%
- inhibition at 10 µM (MOS_Cascade): 60.1%
- inhibition at 10 µM (MRCKβ): 0.1%
- inhibition at 10 µM (MSK2): 20.8%
- inhibition at 10 µM (MST1): -5.2%
- inhibition at 10 µM (MST3): 6.4%
- inhibition at 10 µM (NEK9): -3.3%
- inhibition at 10 µM (PKCη): -12.7%
- inhibition at 10 µM (p70S6K): 7.4%
- inhibition at 10 µM (PAK6): -145%
- inhibition at 10 µM (PKCβ1): 3.5%
- inhibition at 10 µM (PKCι): -4.3%
- inhibition at 10 µM (PKD3): -13.4%
- inhibition at 10 µM (PKR): 5.8%
- inhibition at 10 µM (RAF1_Cascade): 50.9%
- inhibition at 10 µM (SGK3): 21.7%
- inhibition at 10 µM (TAK1-TAB1_Cascade): 52.7%
- inhibition at 10 µM (TAOK2): -1.2%
- inhibition at 10 µM (TSSK2): 39.9%
